Assay results as given in paper PMC8467962, “Design and Synthesis of Water-Soluble and Potent MMP-13 Inhibitors with Activity in Human Osteosarcoma Cells” (International Journal of Molecular Sciences, 2021).
Converted amounts (≈) assume the structure as drawn.

Columns and labels:
[1] = Thermodynamic solubility (shake flask method); type: physicochemical; details: phosphate buffer, aqueous buffer, thermodynamic from solid; PBS pH 7.4, shake flask, room temperature; read-out: Experimental Water Solubility LogS (converted)
Protocol: The samples were sonicated for 10 min and shaken overnight at 800 rpm (FB15013 TopMix, Fischer Scientific, Waltham, MA, USA) at room temperature. A first phase separation of supernatant and undissolved solid was performed by centrifugation at 5000 rpm for 20 min (Biofuge primo R). The supernatant was then transferred into Eppendorf tubes for a second centrifugation. An adequate dilution was made using the particle-free supernatant and the concentration quantified by LC-HRMS using a 4-point calibration curve (Agilent 1260 Infinity II).
PART A. Calibration curves of compounds for solubility
9e, 10a-e), 4-points calibration curves were made for each compound. Calibrations curves were obtained using four different concentrations of the corresponding compound (0.1 mg/mL, 0.01 mg/mL, 0.001 mg/mL and 0.0001 mg/mL). All samples were prepared in DMSO and measured in a LC-HRMS (Agilent 1260 Infinity II).
Figure S1. Calibration curves of all active compounds (solubility studies) (1, 2, 9a, 9e, 10a-e) […]

MMP-2 = target: T1, MMP-2 (Homo sapiens, UniProt P08253); assay: MMP inhibition assay (MMP Inhibitor Profiling Kit, thiopeptide substrate), MMP-2; type: biochemical; details: catalytic domain, 37 °C, pH 7.5
T1 construct: the catalytic domains of the corresponding MMP were incubated in triplicate; purchased Enzo Life Science International, Inc
T1 sequence (P08253 110-446 limits assumed): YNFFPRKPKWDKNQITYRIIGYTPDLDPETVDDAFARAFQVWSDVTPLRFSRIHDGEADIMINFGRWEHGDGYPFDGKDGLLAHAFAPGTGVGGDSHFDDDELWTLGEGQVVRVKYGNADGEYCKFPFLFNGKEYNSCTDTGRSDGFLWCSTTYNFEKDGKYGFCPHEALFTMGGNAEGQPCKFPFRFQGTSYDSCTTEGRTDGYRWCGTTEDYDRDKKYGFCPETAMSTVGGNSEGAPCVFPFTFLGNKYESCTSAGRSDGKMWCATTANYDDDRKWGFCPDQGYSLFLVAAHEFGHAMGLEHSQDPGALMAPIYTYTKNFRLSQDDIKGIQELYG
Protocol: (§1) MMP activity measurements were performed using an MMP Inhibitor Profiling Kit purchased from Enzo Life Science International, Inc. (Farmingdale, NY, USA), and following the manufacturer’s protocol with slight modifications. Proteolytic activity was measured using a thiopeptide substrate (Ac-PLG-[2-mercapto-4-methylpentanoyl]-LG-OC2H5) where the MMP cleavage site peptide bond has been replaced by a thioester bond. Hydrolysis of this bond by MMPs produces a sulfhydryl group that reacts with DTNB to form 2-nitro-5-thiobenzoic acid, which was detected by its absorbance at 414 nm (microplate photometer 90 Thermo Scientific Multiscan FC).
Enzyme reactions were carried out at 37 °C in a 100 μL final volume of solutions, where the catalytic domains of the corresponding MMP were incubated in triplicate with at least seven concentrations of inhibitors. The assay buffer contained the following components: 50 mM HEPES, 10 mM CaCl2 95, 0.05% Brij-35, and 1 mM DTNB at pH 7.5. After addition of the substrate, the increase of absorbance was recorded in 1 min time intervals for 30 min. Data were plotted as OD versus time for each sample to obtain the reaction velocity (V) in OD per min. The percentage of residual activity for each compound was calculated using the following formula: % of remaining activity = (V in the presence of inhibitor/Vcontrol) × 100. An inhibitor, NNGH, was included as a prototypic control inhibitor. IC50 calculations in MMP-13 and MMP-2 for active compounds are shown in Supplementary Materials (Figure S9)
The concentration of the compound that provided 50% inhibition of enzymatic activity (IC50) was determined by using semi-logarithmic dose–response plots (Graph Pad Prism 5.0 for Windows, Graph Pad Software Inc., San Diego, CA, USA, 2007).

MMP-13 = target: T2, MMP-13 (Homo sapiens, UniProt P45452); assay: MMP inhibition assay (MMP Inhibitor Profiling Kit, thiopeptide substrate), MMP-13; type: biochemical; details: catalytic domain, 37 °C, pH 7.5
T2 construct: the catalytic domains of the corresponding MMP were incubated in triplicate; purchased Enzo Life Science International, Inc
Protocol: as §1, with “Proteolytic activity was measured using a thiopeptide substrate (Ac-PLG-[2-mercapto-4-methylpentanoyl]-LG-OC2H5) where the MMP cleavage site peptide bond has been replaced by a thioester bond.” left out
The assay buffer contained the following components: 50 mM HEPES, 10 mM CaCl2 95, 0.05% Brij-35, and 1 mM DTNB at pH 7.5. After addition of the substrate, the increase of absorbance was recorded in 1 min time intervals for 30 min. Data were plotted as OD versus time for each sample to obtain the reaction velocity (V) in OD per min. The percentage of residual activity for each compound was calculated using the following formula: % of remaining activity = (V in the presence of inhibitor/Vcontrol) × 100. An inhibitor, NNGH, was included as a prototypic control inhibitor.

SMILES	solubility [1]	IC50 (MMP-2)	melting point	IC50 (MMP-13)
O=C(NO)C1(S(=O)(=O)c2ccc(-n3cc(CCn4nc5ccccc5n4)nn3)cc2)CCOCC1 [Compound 9e, 4-((4-(4-(2-(2H-benzo[d][1–3]triazol-2-yl)ethyl)-1H-1,2,3-triazol-1-yl)phenyl)sulfonyl)-N-hydroxytetrahydro-2H-pyran-4-carboxamide]	33.9 µM (≈ 16.9 µg/mL)	10.3 ± 2.8 nM	–	–
O=C(NO)[C@@H](Cc1ccccc1)NS(=O)(=O)c1ccc(-n2cc(CCN3C(=O)c4ccccc4C3=O)nn2)cc1 [Compound 10a, (R)-2-((4-(4-(2-(1,3-dioxoisoindolin-2-yl)ethyl)-1H-1,2,3-triazol-1-yl)phenyl)sulfonamido)-N-hydroxy-3-phenylpropanamide]	2.69 µM (≈ 1.51 µg/mL)	3.1 ± 0.9 nM	177 °C (dec.)	–
O=C(NO)[C@@H](Cc1ccccc1)NS(=O)(=O)c1ccc(-n2cc(CCN3C(=O)c4cc(Br)c(Br)cc4C3=O)nn2)cc1 [Compound 10b, (R)-2-((4-(4-(2-(5,6-dibromo-1,3-dioxoisoindolin-2-yl)ethyl)-1H-1,2,3-triazol-1-yl)phenyl)sulfonamido)-N-hydroxy-3-phenylpropanamide]	3.63 µM (≈ 2.61 µg/mL)	15 ± 5 nM	187 to 189 °C	46 ± 21 nM

Continued, values first:

solubility [1]	IC50 (MMP-2)	melting point	IC50 (MMP-13)	SMILES
0.141 µM (≈ 0.124 µg/mL)	17 ± 4 nM	195 to 197 °C	61 ± 18 nM	O=C(NO)[C@@H](Cc1ccccc1)NS(=O)(=O)c1ccc(-n2cc(CCN3C(=O)c4c(Br)c(Br)c(Br)c(Br)c4C3=O)nn2)cc1 [Compound 10c, (R)-N-hydroxy-3-phenyl-2-((4-(4-(2-(4,5,6,7-tetrabromo-1,3-dioxoisoindolin-2-yl)ethyl)-1H-1,2,3-triazol-1-yl)phenyl)sulfonamido)propenamide]
2.29 µM (≈ 1.46 µg/mL)	14 ± 7 nM	104 °C (dec.)	–	O=C(NO)[C@@H](Cc1ccccc1)NS(=O)(=O)c1ccc(-n2cc(CCN3C(=O)c4ccc(Br)cc4C3=O)nn2)cc1 [Compound 10d, (R)-2-((4-(4-(2-(5-bromo-1,3-dioxoisoindolin-2-yl)ethyl)-1H-1,2,3-triazol-1-yl)phenyl)sulfonamido)-N-hydroxy-3-phenylpropanamide]
8.32 µM (≈ 4.78 µg/mL)	2.9 ± 1.1 nM	143 to 145 °C	–	Cc1ccc2c(c1)C(=O)N(CCc1cn(-c3ccc(S(=O)(=O)N[C@H](Cc4ccccc4)C(=O)NO)cc3)nn1)C2=O [Compound 10e, (R)-N-hydroxy-2-((4-(4-(2-(5-methyl-1,3-dioxoisoindolin-2-yl)ethyl)-1H-1,2,3-triazol-1-yl)phenyl)sulfonamido)-3-phenylpropanamide]
